Laboratory results published in PubChem BioAssay AID248 (DTP/NCI, 2004).
“And” between values parts separate entries of the source, which are not always exact repeats. Equal values may be shown once. Toxic doses and inconclusive results are not listed. Rule as the data show it: active = T/C of 150% or more; inactive = T/C below 125%.

Test system: L1210 leukemia ip in BDF1 mice, survival T/C
Assay: NCI In Vivo Anticancer Drug Screen. Data for tumor model L1210 Leukemia (intraperitoneal) in B6D2F1 (BDF1) mice
Conditions: endpoint: mean survival time, higher = longer survival
Method in brief: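 Survival endpoint. Drug-treated group vs vehicle group, expressed as T divided by C. Tumor passaged by transplantation.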

[1] = dose: 100.0 mg/kg/injection, schedule: Q04DX003 (ip), vehicle: saline with Tween-80
[2] = dose: 200.0 mg/kg/injection, schedule: Q04DX003 (ip), vehicle: saline with Tween-80
[3] = dose: 400.0 mg/kg/injection, schedule: Q04DX003 (ip), vehicle: saline with Tween-80
[4] = dose: 100.0 mg/kg/injection, schedule: Q01DX009 (ip), vehicle: Klucel (hydroxypropylcellulose) (HPC)
[5] = dose: 200.0 mg/kg/injection, schedule: Q01DX009 (ip), vehicle: Klucel (hydroxypropylcellulose) (HPC)
[6] = dose: 400.0 mg/kg/injection, schedule: Q01DX009 (ip), vehicle: Klucel (hydroxypropylcellulose) (HPC)
[7] = dose: 100.0 mg/kg/injection, schedule: Q01DX001 (ip), vehicle: saline
[8] = dose: 100.0 mg/kg/injection, schedule: Q01DX009 (ip), vehicle: saline
[9] = dose: 200.0 mg/kg/injection, schedule: Q01DX001 (ip), vehicle: saline
[10] = dose: 50.0 mg/kg/injection, schedule: Q01DX001 (ip), vehicle: other
[11] = dose: 200.0 mg/kg/injection, schedule: Q01DX001 (ip), vehicle: other
[12] = dose: 400.0 mg/kg/injection, schedule: Q01DX001 (ip), vehicle: other
[13] = dose: 100.0 mg/kg/injection, schedule: Q01DX001 (ip), vehicle: other
[14] = dose: 100.0 mg/kg/injection, schedule: Q04DX002 (ip), vehicle: saline with Tween-80
[15] = dose: 200.0 mg/kg/injection, schedule: Q04DX002 (ip), vehicle: saline with Tween-80
[16] = dose: 400.0 mg/kg/injection, schedule: Q04DX002 (ip), vehicle: saline with Tween-80

Measured: T/C

O=[N+]([O-])c1ccc(N=Cc2ccccc2)cc1
inactive: dose: 100.0 mg/kg/injection, schedule: Q04DX003 (ip), vehicle: Klucel (hydroxypropylcellulose) (HPC) 91 % of control | dose: 200.0 mg/kg/injection, schedule: Q04DX003 (ip), vehicle: Klucel (hydroxypropylcellulose) (HPC) 96 % of control | dose: 400.0 mg/kg/injection, schedule: Q04DX003 (ip), vehicle: Klucel (hydroxypropylcellulose) (HPC) 98 % of control

c1ccc(B2Nc3ccccc3-c3ccccc32)cc1
inactive: [1] 98 % of control | [2] 96 % of control | [3] 98 % of control

COC(=O)c1ccc(C(=O)O)nc1
inactive: [4] 104 % of control | [5] 94 % of control | [6] 102 % of control

O=[N+]([O-])c1ccc(N=Nc2ccc(O)cc2)cc1
inactive: dose: 55.0 mg/kg/injection, schedule: Q01DX Z (ip), vehicle: methylcellulose (MC) 103 % of control | dose: 83.0 mg/kg/injection, schedule: Q01DX Z (ip), vehicle: methylcellulose (MC) 117 % of control | [1] 98 % of control | dose: 125.0 mg/kg/injection, schedule: Q01DX Z (ip), vehicle: methylcellulose (MC) 103 % of control | [2] 91 % of control | [3] 98 % of control

CC(C)CSC(SCC(C)C)C(OC(=O)c1ccccc1)C(OC(=O)c1ccccc1)C(COC(=O)c1ccccc1)OC(=O)c1ccccc1 (configuration not stated)
inactive: dose: 100.0 mg/kg/injection, schedule: Q04DX002 (ip), vehicle: Klucel (hydroxypropylcellulose) (HPC) 103 % of control | dose: 200.0 mg/kg/injection, schedule: Q04DX002 (ip), vehicle: Klucel (hydroxypropylcellulose) (HPC) 94 % of control | dose: 400.0 mg/kg/injection, schedule: Q04DX002 (ip), vehicle: Klucel (hydroxypropylcellulose) (HPC) 87 % of control

O=[N+]([O-])c1ccc(-c2nc3c(o2)CCC3)cc1
inactive: [1] 98 % of control | [2] 105 % of control | [3] 96 % of control

CCC1CN1P(=O)(N(CC)CC)N1CC1CC (configuration not stated)
inactive: dose: 29.0 mg/kg/injection, schedule: Q01DX015 (ip), vehicle: saline 100 % of control | dose: 44.0 mg/kg/injection, schedule: Q01DX015 (ip), vehicle: saline 105 % of control | dose: 66.0 mg/kg/injection, schedule: Q01DX015 (ip), vehicle: saline 109 % of control | dose: 89.0 mg/kg/injection, schedule: Q01DX001 (ip), vehicle: saline 111 % of control | [7] 103 % of control | [8] 107 % of control | dose: 100.0 mg/kg/injection, schedule: Q01DX015 (ip), vehicle: saline 110 % of control | dose: 133.0 mg/kg/injection, schedule: Q01DX001 (ip), vehicle: saline 119 % of control | dose: 150.0 mg/kg/injection, schedule: Q01DX009 (ip), vehicle: saline 107 % of control | [9] 121 % of control

CCCCCCOc1ccc(N=[N+]([O-])c2ccc(OCCCCCC)cc2)cc1
inactive: dose: 75.0 mg/kg/injection, schedule: Q01DX001 (ip), vehicle: other 91 % of control | dose: 150.0 mg/kg/injection, schedule: Q01DX001 (ip), vehicle: other 91 % of control | dose: 300.0 mg/kg/injection, schedule: Q01DX001 (ip), vehicle: other 87 % of control

CN(CC(=O)O)Cc1ccccc1
inactive: [8] 93 % of control | dose: 100.0 mg/kg/injection, schedule: Q04DX003 (ip), vehicle: saline 104 % of control | dose: 200.0 mg/kg/injection, schedule: Q01DX009 (ip), vehicle: saline 88 % of control | dose: 200.0 mg/kg/injection, schedule: Q04DX003 (ip), vehicle: saline 109 % of control | dose: 400.0 mg/kg/injection, schedule: Q01DX009 (ip), vehicle: saline 93 % of control | dose: 400.0 mg/kg/injection, schedule: Q04DX003 (ip), vehicle: saline 102 % of control

CN(C)CCCNC(=O)C1C(c2ccccc2)C1c1ccccc1 (configuration not stated)
inactive: dose: 12.5 mg/kg/injection, schedule: Q04DX002 (ip), vehicle: saline with Tween-80 102 % of control | dose: 25.0 mg/kg/injection, schedule: Q04DX002 (ip), vehicle: saline with Tween-80 102 % of control | dose: 50.0 mg/kg/injection, schedule: Q04DX002 (ip), vehicle: saline with Tween-80 91 % of control

NNC(=S)Nc1ccccc1
inactive: dose: 5.0 mg/kg/injection, schedule: Q01DX009 (ip), vehicle: saline with Tween-80 98 % of control

O=C(CCCC(=O)N/N=C/c1ccc(Cl)cc1)N/N=C\c1ccc(Cl)cc1
inactive: [10] 102 % of control | [11] 91 % of control | [12] 91 % of control

O=C(O)CCC(=O)NNC(=O)Cc1c[nH]c2ccccc12
inactive: [13] 106 % of control | dose: 100.0 mg/kg/injection, schedule: Q04DX003 (ip), vehicle: other 95 % of control | [11] 106 % of control | dose: 200.0 mg/kg/injection, schedule: Q04DX003 (ip), vehicle: other 94 % of control | [12] 97 % of control | dose: 400.0 mg/kg/injection, schedule: Q04DX003 (ip), vehicle: other 94 % of control

COc1cccc(/C=N\NC(=O)CCCC(=O)N/N=C/c2cccc(OC)c2OC)c1OC
inactive: [10] 91 % of control | [13] 91 % of control | [11] 91 % of control | [12] 91 % of control

CCOC(=O)c1ccc(NC(=O)Nc2cccc(O)c2)cc1
inactive: dose: 100.0 mg/kg/injection, schedule: Q01DX001 (ip), vehicle: saline with Tween-80 89 % of control | dose: 100.0 mg/kg/injection, schedule: Q01DX009 (ip), vehicle: saline with Tween-80 95 % of control | [14] 99 % of control and 110 % of control | [1] 95 % of control | dose: 200.0 mg/kg/injection, schedule: Q01DX001 (ip), vehicle: saline with Tween-80 98 % of control | dose: 200.0 mg/kg/injection, schedule: Q01DX009 (ip), vehicle: saline with Tween-80 99 % of control | [15] 99 % of control and 106 % of control | [2] 93 % of control | dose: 400.0 mg/kg/injection, schedule: Q01DX001 (ip), vehicle: saline with Tween-80 94 % of control | dose: 400.0 mg/kg/injection, schedule: Q01DX009 (ip), vehicle: saline with Tween-80 95 % of control | [16] 103 % of control and 104 % of control | [3] 94 % of control

Nc1c(N)c2ccccc2c2ccccc12
inactive: dose: 50.0 mg/kg/injection, schedule: Q01DX001 (ip), vehicle: carboxymethylcellulose (CMC) 115 % of control | dose: 100.0 mg/kg/injection, schedule: Q01DX001 (ip), vehicle: carboxymethylcellulose (CMC) 110 % of control | dose: 200.0 mg/kg/injection, schedule: Q01DX001 (ip), vehicle: carboxymethylcellulose (CMC) 117 % of control | dose: 400.0 mg/kg/injection, schedule: Q01DX001 (ip), vehicle: carboxymethylcellulose (CMC) 110 % of control

CCOc1ccc2c(ccc(/C=C\c3ccc(O)c4ccccc34)[n+]2C)c1
inactive: dose: 15.0 mg/kg/injection, schedule: Q01DX001 (ip), vehicle: saline 96 % of control | dose: 30.0 mg/kg/injection, schedule: Q01DX001 (ip), vehicle: saline 96 % of control | dose: 60.0 mg/kg/injection, schedule: Q01DX001 (ip), vehicle: saline 97 % of control | dose: 75.0 mg/kg/injection, schedule: Q01DX001 (ip), vehicle: saline 106 % of control | dose: 150.0 mg/kg/injection, schedule: Q01DX001 (ip), vehicle: saline 101 % of control

CC(=O)CCC[CH2][Sn]([c]1ccccc1)([c]1ccccc1)[c]1ccccc1
inactive: [14] 102 % of control | [15] 91 % of control | [16] 97 % of control

NC(N)=Nc1ccc(Cc2ccc(N=C(N)N)cc2)cc1
inactive: dose: 12.5 mg/kg/injection, schedule: Q01DX Z (oral), vehicle: saline 105 % of control | dose: 25.0 mg/kg/injection, schedule: Q01DX Z (oral), vehicle: saline 103 % of control | dose: 50.0 mg/kg/injection, schedule: Q01DX Z (oral), vehicle: saline 94 % of control | dose: 100.0 mg/kg/injection, schedule: Q01DX Z (oral), vehicle: saline 93 % of control

O=P(OCCCl)(OCCCl)C(c1ccccc1)(c1ccccc1)c1ccccc1
inactive: [4] 105 % of control | [5] 96 % of control | [6] 93 % of control

Nc1ccc(I)cc1C(=O)O
inactive: dose: 50.0 mg/kg/injection, schedule: Q01DX001 (ip), vehicle: saline 103 % of control | [7] 103 % of control | [9] 101 % of control | dose: 400.0 mg/kg/injection, schedule: Q01DX001 (ip), vehicle: saline 97 % of control
